Experimental data from ChEMBL document CHEMBL5303765, “Data for DCP probe BAY-7081” (2023).

Key:
[1] = biological target: Histamine H1 receptor (Homo sapiens) (UniProt P35367); conditions: Compound concentration 10.0 uM
[2] = biological target: Calcium/calmodulin-dependent protein kinase type 1G (Homo sapiens) (UniProt Q96NX5); experiment: CAMK1G SGC Tm panel (DSF); conditions: for ΔTm: Compound concentration 10.0 uM
[3] = biological target: Serine/threonine-protein kinase OSR1 (Homo sapiens) (UniProt O95747); experiment: OSR1 SGC Tm panel (DSF); conditions: for ΔTm: Compound concentration 10.0 uM
Serine/threonine-protein kinase OSR1 (Homo sapiens), sequence (O95747 2-527 limits assumed): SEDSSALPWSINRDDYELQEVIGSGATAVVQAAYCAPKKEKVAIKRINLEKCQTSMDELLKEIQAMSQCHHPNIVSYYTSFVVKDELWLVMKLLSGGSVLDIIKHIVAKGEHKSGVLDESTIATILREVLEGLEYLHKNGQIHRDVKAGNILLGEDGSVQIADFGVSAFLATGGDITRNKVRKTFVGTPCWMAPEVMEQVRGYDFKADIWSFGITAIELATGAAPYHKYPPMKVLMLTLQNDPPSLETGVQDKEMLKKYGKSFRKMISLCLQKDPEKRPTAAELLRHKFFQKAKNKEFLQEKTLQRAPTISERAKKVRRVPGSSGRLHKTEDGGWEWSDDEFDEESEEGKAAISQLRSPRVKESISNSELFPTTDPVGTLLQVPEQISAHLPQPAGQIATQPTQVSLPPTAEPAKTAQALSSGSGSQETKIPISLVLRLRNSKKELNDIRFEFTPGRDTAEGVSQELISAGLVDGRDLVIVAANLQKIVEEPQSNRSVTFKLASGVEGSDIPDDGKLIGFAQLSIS

[4] = biological target: RAC-gamma serine/threonine-protein kinase (Homo sapiens) (UniProt Q9Y243); experiment: AKT3 SGC Tm panel (DSF); conditions: for ΔTm: Compound concentration 10.0 uM
RAC-gamma serine/threonine-protein kinase (Homo sapiens), sequence (Q9Y243 whole entry): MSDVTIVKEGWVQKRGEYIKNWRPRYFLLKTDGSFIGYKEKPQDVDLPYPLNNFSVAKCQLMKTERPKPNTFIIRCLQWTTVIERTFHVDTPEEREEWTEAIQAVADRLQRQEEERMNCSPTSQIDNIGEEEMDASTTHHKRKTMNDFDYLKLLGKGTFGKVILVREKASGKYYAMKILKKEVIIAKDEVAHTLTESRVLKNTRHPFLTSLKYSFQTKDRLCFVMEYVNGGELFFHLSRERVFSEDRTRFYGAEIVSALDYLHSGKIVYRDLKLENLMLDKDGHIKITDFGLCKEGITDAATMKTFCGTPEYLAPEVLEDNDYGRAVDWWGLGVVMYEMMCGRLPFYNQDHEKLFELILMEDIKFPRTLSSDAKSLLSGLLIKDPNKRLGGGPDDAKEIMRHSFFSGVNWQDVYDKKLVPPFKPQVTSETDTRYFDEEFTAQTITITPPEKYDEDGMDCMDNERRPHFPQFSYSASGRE

[5] = biological target: T1, MAP/microtubule affinity-regulating kinase 4 (Homo sapiens) (UniProt Q96L34); experiment: MARK4 SGC Tm panel (DSF); conditions: for ΔTm: Compound concentration 10.0 uM
T1 sequence (whole entry): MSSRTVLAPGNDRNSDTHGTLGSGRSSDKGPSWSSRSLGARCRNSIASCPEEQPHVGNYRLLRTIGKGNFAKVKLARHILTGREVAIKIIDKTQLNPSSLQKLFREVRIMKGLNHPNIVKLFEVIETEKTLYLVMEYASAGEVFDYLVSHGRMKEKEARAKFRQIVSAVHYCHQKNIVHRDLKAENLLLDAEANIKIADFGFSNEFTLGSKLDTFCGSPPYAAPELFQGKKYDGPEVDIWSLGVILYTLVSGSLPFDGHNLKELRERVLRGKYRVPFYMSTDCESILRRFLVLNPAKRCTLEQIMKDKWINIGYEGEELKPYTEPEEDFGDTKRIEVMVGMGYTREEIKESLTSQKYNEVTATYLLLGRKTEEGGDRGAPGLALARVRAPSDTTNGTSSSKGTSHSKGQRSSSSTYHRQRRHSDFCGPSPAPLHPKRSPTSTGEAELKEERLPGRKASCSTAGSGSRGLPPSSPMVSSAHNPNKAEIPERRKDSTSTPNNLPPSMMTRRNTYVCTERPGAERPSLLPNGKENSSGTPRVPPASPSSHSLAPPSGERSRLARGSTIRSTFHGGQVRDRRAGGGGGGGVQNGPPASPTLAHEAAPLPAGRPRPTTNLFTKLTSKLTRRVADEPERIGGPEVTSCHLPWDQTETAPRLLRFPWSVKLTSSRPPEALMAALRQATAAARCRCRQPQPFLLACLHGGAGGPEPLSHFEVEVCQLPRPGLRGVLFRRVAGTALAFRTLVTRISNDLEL

[6] = biological target: T2, Serine/threonine-protein kinase DCLK1 (Homo sapiens) (UniProt O15075); experiment: DCAMKL1 SGC Tm panel (DSF); conditions: for ΔTm: Compound concentration 10.0 uM
T2 sequence (whole entry): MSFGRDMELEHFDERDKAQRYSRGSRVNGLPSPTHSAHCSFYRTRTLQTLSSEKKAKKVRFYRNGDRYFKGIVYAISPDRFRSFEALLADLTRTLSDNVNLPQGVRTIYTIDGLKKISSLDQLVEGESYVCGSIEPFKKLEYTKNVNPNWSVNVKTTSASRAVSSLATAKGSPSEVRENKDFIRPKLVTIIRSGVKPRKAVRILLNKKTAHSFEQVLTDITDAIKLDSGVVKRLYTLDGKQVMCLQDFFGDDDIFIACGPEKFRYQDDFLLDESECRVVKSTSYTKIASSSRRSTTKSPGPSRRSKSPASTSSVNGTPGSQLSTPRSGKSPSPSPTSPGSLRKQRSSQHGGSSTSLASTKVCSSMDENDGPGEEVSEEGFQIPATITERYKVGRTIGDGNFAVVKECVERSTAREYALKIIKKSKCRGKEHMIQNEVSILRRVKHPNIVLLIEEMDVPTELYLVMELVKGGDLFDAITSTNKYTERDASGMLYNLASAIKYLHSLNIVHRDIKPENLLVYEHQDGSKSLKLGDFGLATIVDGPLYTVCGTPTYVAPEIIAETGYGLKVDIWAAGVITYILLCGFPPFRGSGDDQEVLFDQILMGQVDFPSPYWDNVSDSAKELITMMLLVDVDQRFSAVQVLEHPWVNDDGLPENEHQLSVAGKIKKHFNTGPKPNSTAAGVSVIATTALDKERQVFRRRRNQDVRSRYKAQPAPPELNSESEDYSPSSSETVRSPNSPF

[7] = biological target: Cyclin-dependent kinase 2 (Homo sapiens) (UniProt P24941); experiment: CDK2 SGC Tm panel (DSF); conditions: for ΔTm: Compound concentration 10.0 uM
[8] = biological target: Sodium-dependent dopamine transporter (Homo sapiens) (UniProt Q01959); conditions: Compound concentration 10.0 uM
Sodium-dependent dopamine transporter (Homo sapiens), sequence (Q01959 whole entry): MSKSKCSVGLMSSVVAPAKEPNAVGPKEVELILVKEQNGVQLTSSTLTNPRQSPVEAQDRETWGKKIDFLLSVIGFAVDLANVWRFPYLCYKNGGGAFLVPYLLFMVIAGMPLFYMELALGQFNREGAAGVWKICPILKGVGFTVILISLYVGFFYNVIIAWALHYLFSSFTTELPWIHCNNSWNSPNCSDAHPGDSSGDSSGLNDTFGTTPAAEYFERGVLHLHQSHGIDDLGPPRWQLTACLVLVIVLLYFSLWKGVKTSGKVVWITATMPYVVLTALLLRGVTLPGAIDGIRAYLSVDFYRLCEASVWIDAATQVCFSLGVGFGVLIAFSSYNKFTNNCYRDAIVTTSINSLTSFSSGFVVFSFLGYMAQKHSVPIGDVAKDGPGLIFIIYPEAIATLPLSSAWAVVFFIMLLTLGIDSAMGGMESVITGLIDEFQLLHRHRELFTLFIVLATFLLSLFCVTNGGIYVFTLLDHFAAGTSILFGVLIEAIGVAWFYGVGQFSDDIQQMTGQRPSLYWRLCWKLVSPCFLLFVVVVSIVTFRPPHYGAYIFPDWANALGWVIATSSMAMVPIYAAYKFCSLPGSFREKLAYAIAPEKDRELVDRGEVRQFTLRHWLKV

[9] = biological target: Serine/threonine-protein kinase pim-3 (Homo sapiens) (UniProt Q86V86); experiment: PIM3 SGC Tm panel (DSF); conditions: for ΔTm: Compound concentration 10.0 uM
Rattus norvegicus = organism: Rattus norvegicus; conditions: Compound concentration 10.0 uM
[10] = biological target: Serine/threonine-protein kinase B-raf (Homo sapiens) (UniProt P15056); experiment: BRAF SGC Tm panel (DSF); conditions: for ΔTm: Compound concentration 10.0 uM
Serine/threonine-protein kinase B-raf (Homo sapiens), sequence (P15056 whole entry): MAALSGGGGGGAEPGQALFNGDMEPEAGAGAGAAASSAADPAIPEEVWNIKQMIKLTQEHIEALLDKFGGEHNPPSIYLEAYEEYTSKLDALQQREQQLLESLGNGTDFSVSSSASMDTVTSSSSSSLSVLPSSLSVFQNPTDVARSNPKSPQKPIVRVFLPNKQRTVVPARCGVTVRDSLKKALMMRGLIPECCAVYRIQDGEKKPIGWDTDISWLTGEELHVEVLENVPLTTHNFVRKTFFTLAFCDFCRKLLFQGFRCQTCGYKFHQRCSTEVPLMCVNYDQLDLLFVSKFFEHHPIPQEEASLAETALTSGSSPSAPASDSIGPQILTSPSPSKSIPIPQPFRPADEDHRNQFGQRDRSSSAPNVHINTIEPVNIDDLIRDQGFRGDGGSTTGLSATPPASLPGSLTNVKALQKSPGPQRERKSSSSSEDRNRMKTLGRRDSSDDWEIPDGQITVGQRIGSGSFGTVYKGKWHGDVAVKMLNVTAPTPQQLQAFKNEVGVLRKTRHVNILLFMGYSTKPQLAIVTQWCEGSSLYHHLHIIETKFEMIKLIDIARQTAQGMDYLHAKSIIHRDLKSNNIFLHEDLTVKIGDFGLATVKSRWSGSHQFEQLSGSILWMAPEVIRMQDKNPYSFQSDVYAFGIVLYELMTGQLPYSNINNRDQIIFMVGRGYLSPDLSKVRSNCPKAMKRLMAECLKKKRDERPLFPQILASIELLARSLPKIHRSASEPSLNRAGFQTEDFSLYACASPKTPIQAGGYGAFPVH

[11] = biological target: SRSF protein kinase 1 (Homo sapiens) (UniProt Q96SB4); experiment: SRPK1 SGC Tm panel (DSF); conditions: for ΔTm: Compound concentration 10.0 uM
[12] = biological target: Tyrosine-protein kinase Fes/Fps (Homo sapiens) (UniProt P07332); experiment: FES SGC Tm panel (DSF); conditions: for ΔTm: Compound concentration 10.0 uM
Tyrosine-protein kinase Fes/Fps (Homo sapiens), sequence (P07332 whole entry): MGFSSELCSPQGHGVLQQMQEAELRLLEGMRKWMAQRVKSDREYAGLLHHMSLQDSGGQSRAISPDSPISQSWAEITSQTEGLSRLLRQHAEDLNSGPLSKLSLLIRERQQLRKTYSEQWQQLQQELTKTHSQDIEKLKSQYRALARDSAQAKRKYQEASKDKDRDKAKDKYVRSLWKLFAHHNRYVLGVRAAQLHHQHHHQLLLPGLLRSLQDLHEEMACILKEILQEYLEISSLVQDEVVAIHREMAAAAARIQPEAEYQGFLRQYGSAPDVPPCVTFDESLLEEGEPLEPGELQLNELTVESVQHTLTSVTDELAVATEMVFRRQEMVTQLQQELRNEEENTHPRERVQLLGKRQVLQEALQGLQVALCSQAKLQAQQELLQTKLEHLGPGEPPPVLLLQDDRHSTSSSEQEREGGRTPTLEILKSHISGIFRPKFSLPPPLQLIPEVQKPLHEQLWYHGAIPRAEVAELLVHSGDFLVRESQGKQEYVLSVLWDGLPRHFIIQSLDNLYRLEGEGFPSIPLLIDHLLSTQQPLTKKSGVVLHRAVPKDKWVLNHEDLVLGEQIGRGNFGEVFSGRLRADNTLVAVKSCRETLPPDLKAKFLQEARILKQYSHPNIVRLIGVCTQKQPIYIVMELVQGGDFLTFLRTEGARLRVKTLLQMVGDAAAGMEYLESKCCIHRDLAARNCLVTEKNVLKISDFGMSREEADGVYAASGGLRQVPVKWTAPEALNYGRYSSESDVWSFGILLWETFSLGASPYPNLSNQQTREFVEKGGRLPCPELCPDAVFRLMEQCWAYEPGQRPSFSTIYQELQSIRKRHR

[13] = biological target: Serine/threonine-protein kinase PAK 1 (Homo sapiens) (UniProt Q13153); experiment: PAK1 SGC Tm panel (DSF); conditions: for ΔTm: Compound concentration 10.0 uM
Serine/threonine-protein kinase PAK 1 (Homo sapiens), sequence (Q13153 whole entry): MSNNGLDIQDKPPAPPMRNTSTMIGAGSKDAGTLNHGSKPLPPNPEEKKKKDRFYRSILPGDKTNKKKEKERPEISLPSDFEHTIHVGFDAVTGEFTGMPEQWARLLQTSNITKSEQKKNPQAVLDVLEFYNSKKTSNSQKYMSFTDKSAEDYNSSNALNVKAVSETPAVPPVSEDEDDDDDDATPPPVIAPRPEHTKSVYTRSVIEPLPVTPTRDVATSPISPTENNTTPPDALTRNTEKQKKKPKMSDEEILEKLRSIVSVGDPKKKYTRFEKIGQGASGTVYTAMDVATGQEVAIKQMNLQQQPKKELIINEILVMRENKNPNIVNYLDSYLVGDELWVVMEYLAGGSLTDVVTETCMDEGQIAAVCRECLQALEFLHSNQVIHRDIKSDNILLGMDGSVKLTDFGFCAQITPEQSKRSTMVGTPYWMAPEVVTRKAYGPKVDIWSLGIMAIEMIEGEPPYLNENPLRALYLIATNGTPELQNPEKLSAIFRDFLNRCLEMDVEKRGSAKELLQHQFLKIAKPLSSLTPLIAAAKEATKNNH

[14] = biological target: Calcium/calmodulin-dependent protein kinase type II subunit beta (Homo sapiens) (UniProt Q13554); experiment: CAMK2B SGC Tm panel (DSF); conditions: for ΔTm: Compound concentration 10.0 uM
Calcium/calmodulin-dependent protein kinase type II subunit beta (Homo sapiens), sequence (Q13554 whole entry): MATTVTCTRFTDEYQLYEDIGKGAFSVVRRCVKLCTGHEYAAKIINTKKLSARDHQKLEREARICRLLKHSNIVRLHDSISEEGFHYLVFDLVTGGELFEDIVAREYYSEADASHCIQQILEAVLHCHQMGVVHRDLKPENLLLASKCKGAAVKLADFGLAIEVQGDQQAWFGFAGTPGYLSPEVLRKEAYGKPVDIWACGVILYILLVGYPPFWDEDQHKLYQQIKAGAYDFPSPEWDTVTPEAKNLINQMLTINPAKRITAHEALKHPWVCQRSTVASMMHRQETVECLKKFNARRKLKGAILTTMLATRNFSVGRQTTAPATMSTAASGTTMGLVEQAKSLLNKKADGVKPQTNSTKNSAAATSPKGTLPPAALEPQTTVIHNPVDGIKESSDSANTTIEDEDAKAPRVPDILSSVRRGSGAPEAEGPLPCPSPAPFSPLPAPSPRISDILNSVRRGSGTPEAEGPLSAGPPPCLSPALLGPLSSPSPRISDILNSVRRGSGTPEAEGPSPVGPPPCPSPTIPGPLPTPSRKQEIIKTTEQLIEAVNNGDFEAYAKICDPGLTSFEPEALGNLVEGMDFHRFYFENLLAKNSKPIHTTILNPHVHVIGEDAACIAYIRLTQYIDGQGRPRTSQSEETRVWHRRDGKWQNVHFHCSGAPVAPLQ

Histamine H1 receptor (Homo sapiens), sequence (P35367 whole entry): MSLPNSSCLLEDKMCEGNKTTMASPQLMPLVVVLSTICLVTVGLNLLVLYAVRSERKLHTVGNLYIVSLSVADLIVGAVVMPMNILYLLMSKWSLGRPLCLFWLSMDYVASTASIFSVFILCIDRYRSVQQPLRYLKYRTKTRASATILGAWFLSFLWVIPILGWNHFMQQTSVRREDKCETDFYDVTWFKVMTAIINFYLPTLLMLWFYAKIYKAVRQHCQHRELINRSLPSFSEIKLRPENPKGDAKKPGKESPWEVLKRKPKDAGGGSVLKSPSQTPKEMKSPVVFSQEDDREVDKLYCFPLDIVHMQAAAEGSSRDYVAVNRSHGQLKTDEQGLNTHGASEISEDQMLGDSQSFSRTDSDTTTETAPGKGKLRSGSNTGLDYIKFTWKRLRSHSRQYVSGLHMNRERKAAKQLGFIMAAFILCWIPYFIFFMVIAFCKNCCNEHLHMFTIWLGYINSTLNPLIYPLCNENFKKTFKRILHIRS

Row | SMILES | inhibition [1] | delta Tm Staurosporine positive control [2] | ΔTm [2] | delta Tm Staurosporine positive control [3] | ΔTm [3] | delta Tm Staurosporine positive control [4] | ΔTm [4] | delta Tm Staurosporine positive control [5] | ΔTm [5] | delta Tm Staurosporine positive control [6] | ΔTm [6] | delta Tm Staurosporine positive control [7] | ΔTm [7] | inhibition [8] | delta Tm Staurosporine positive control [9] | ΔTm [9] | inhibition (Rattus norvegicus) | delta Tm Staurosporine positive control [10] | ΔTm [10] | delta Tm Staurosporine positive control [11] | also measured
1 | CCC[C@H]1CNCc2c1[nH]c(=O)c(C#N)c2N1CCC2(CC1)CC2 | -2.94% | 11.2 | -0.348 | 8.41 | -0.0871 | 7.15 | -0.443 | 15.9 | -0.175 | 12.7 | -1.21 | 14.3 | -0.589 | 3.42% | 16.7 | -0.159 | 10.4% | 1.08 | -0.134 | 7.17 | ΔTm [11]: -0.269; delta Tm Staurosporine positive control [12]: 9.22; ΔTm [12]: -0.11; delta Tm Staurosporine positive control [13]: 7.21; ΔTm [13]: -0.68; delta Tm Staurosporine positive control [14]: 13.7; ΔTm [14]: -0.51
2 | CCC[C@@H]1CNCc2c1[nH]c(=O)c(C#N)c2N1CCC2(CC1)CC2 | 4.72% | 11.2 | -0.416 | 8.41 | 0.204 | 7.15 | -0.39 | 15.9 | 0.243 | 12.7 | -1.16 | 14.3 | -0.673 | 7.47% | 16.7 | -0.32 | 0.4% | 1.08 | -0.0823 | 7.17 | ΔTm [11]: -0.188; delta Tm Staurosporine positive control [12]: 9.22; ΔTm [12]: -0.389; delta Tm Staurosporine positive control [13]: 7.21; ΔTm [13]: -0.679; delta Tm Staurosporine positive control [14]: 13.7; ΔTm [14]: -0.647
